Source: patent US20100105655A1, “NOVEL COMPOUNDS 515” (ASTRAZENECA AB, priority 2008, published 2010)

Each compound was assayed against T1, IGFR kinase (Homo sapiens, UniProt P08069) (assay: Enzyme assay (c), IGFR kinase, Caliper LabChip). Details: not given.
T1 construct: purchased Millipore
Assay type: biochemical

T1 sequence (P08069 31-1367): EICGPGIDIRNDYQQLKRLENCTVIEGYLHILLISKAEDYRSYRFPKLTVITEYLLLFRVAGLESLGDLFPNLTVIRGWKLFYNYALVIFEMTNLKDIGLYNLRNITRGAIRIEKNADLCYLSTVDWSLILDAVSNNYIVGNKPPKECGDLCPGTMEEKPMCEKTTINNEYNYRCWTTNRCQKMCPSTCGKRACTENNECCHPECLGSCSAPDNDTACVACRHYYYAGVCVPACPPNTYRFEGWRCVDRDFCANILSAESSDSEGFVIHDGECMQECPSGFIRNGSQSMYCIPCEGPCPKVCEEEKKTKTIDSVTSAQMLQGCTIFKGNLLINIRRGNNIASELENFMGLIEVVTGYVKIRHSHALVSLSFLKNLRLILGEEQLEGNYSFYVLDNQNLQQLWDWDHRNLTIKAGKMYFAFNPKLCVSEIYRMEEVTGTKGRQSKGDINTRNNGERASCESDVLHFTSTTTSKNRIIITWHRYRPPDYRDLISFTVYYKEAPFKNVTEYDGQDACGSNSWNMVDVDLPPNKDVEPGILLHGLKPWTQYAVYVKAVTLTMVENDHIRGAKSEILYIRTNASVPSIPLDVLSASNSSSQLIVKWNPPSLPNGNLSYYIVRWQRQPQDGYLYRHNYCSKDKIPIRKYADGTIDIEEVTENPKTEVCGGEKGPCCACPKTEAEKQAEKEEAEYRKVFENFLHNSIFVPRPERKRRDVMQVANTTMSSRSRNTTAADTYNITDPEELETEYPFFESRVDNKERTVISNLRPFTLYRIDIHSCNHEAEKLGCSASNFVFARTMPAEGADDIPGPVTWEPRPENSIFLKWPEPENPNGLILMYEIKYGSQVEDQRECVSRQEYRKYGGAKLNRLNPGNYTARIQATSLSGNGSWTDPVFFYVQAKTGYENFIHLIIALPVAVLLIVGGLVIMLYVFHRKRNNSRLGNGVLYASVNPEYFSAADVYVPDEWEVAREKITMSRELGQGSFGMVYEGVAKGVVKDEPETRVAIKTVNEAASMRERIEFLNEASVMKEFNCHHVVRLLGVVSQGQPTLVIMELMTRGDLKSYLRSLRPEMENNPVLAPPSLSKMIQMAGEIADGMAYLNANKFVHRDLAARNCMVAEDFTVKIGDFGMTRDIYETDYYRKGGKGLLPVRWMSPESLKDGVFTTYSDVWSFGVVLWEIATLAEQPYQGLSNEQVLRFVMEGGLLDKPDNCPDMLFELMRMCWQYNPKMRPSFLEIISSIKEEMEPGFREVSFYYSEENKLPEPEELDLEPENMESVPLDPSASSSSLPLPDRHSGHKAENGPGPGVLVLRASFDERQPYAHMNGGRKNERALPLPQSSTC

Question: For `COc1cc(N2CC3CN(CCCO)CC(C2)O3)ccc1Nc1ncc(Cl)c(-c2cnc3c(F)cccn23)n1` [Example 204, 3-[7-[4-[[5-chloro-4-(8-fluoroimidazo[1,2-a]pyridin-3-yl)pyrimidin-2-yl]amino]-3-methoxy-phenyl]-9-oxa-3,7-diazabicyclo[3.3.1]nonan-3-yl]propan-1-ol], which IC50 is on record?
Answer: 19 nM

Same assay, conditions: 30 nM IGFR kinase, 6 uM ATP, 3 uM peptide mix; read-out: IGFR IC50

Question: How did the IC50 turn out when `CC(=O)N1CCN(c2ccc(Nc3ncc(Cl)c(-c4cnc5ccccn45)n3)c(C)c2)CC1` [Example 3.30, 1-[4-[4-[(5-chloro-4-imidazo[1,2-a]pyridin-3-yl-pyrimidin-2-yl)amino]-3-methyl-phenyl]piperazin-1-yl]ethanone] was run?
Answer: 12 nM

Question: For `COc1cc(N2CCN(C(C)=O)CC2)cc(F)c1Nc1ncc(Cl)c(-c2cnc3ccccn23)n1` [Example 3.26, 1-[4-[4-[(5-chloro-4-imidazo[1,2-a]pyridin-3-yl-pyrimidin-2-yl)amino]-3-fluoro-5-methoxy-phenyl]piperazin-1-yl]ethanone], which IC50 is on record?
Answer: 19 nM

Question: For `COc1cc(N2CC[C@@H](O)C2)ccc1Nc1ncc(F)c(-c2cnc3ccccn23)n1` [Example 85, (3R)-1-[4-[(5-fluoro-4-imidazo[1,2-a]pyridin-3-yl-pyrimidin-2-yl)amino]-3-methoxy-phenyl]pyrrolidin-3-ol], which IC50 is on record?
Answer: 34 nM

Question: For `COc1cc(O[C@H]2CCN(S(C)(=O)=O)C2)ccc1Nc1ncc(Cl)c(-c2cnc3ccccn23)n1` [Example 14, 5-chloro-4-imidazo[1,2-a]pyridin-3-yl-N-[2-methoxy-4-[(3S)-1-methylsulfonylpyrrolidin-3-yl]oxy-phenyl]pyrimidin-2-amine], which IC50 is on record?
Answer: 19 nM

Question: Which IC50 does the source give for `COc1cc(N2CCN(CC(C)(C)O)CC2)ccc1Nc1ncc(F)c(-c2cnc3ccccn23)n1` [Example 91, 1-[4-[4-[(5-fluoro-4-imidazo[1,2-a]pyridin-3-yl-pyrimidin-2-yl)amino]-3-methoxy-phenyl]piperazin-1-yl]-2-methyl-propan-2-ol] here?
Answer: 35 nM

Question: Which IC50 does the source give for `COc1cc(N2CCN(CCO)CC2)c(C)cc1Nc1ncc(Cl)c(-c2cnc3ccccn23)n1` [Example 279, 2-[4-[4-[(5-chloro-4-imidazo[1,2-a]pyridin-3-yl-pyrimidin-2-yl)amino]-5-methoxy-2-methyl-phenyl]piperazin-1-yl]ethanol] here?
Answer: 8 nM

Question: Which IC50 does the source give for `COc1cc(OC[C@H]2CCCN2)ccc1Nc1ncc(Cl)c(-c2cnc3ccccn23)n1` [Example 6.1, 5-chloro-4-imidazo[1,2-a]pyridin-3-yl-N-[2-methoxy-4-[[(2R)-pyrrolidin-2-yl]methoxy]phenyl]pyrimidin-2-amine] here?
Answer: 12 nM

Question: How did the IC50 turn out when `CCC(=O)N1CCN(c2ccc(Nc3ncc(Cl)c(-c4cnc5ccccn45)n3)c(OC)c2)CC1` [Example 42, 1-[4-[4-[(5-chloro-4-imidazo[1,2-a]pyridin-3-yl-pyrimidin-2-yl)amino]-3-methoxy-phenyl]piperazin-1-yl]propan-1-one] was run?
Answer: 18 nM

Question: Which IC50 does the source give for `COc1cc(C2CCN(C(=O)[C@H](C)O)CC2)ccc1Nc1ncc(Cl)c(-c2cnc3ccccn23)n1` [Example 28.4, (2S)-1-[4-[4-[(5-chloro-4-imidazo[1,2-a]pyridin-3-yl-pyrimidin-2-yl)amino]-3-methoxy-phenyl]-1-piperidyl]-2-hydroxy-propan-1-one] here?
Answer: 14 nM

Question: Which IC50 does the source give for `COc1cc(N2CCN(C(C)=O)CC2)ccc1Nc1ncc(OC)c(-c2cnc3ccccn23)n1` [Example 92, 1-[4-[4-[(4-imidazo[1,2-a]pyridin-3-yl-5-methoxy-pyrimidin-2-yl)amino]-3-methoxy-phenyl]piperazin-1-yl]ethanone] here?
Answer: 90 nM

Question: With `COc1cc(N2CC3CN(C(CO)CO)CC(C2)O3)ccc1Nc1ncc(Cl)c(-c2cnn3ccccc23)n1` [Example 242, 2-[7-[4-[(5-chloro-4-pyrazolo[1,5-a]pyridin-3-yl-pyrimidin-2-yl)amino]-3-methoxy-phenyl]-9-oxa-3,7-diazabicyclo[3.3.1]nonan-3-yl]propane-1,3-diol] as the compound, how does the IC50 read?
Answer: 740 nM

Question: Which IC50 does the source give for `COc1cc(O[C@H]2CCN(C(C)=O)C2)ccc1Nc1ncc(Cl)c(-c2cnc3ccccn23)n1` [Example 13, 1-[(3S)-3-[4-[(5-chloro-4-imidazo[1,2-a]pyridin-3-yl-pyrimidin-2-yl)amino]-3-methoxy-phenoxy]pyrrolidin-1-yl]ethanone] here?
Answer: 20 nM

Question: With `COc1cc(CC(CO)CO)ccc1Nc1ncc(Cl)c(-c2cnn3ccccc23)n1` [Example 190, 2-[[4-[(5-chloro-4-pyrazolo[1,5-a]pyridin-3-yl-pyrimidin-2-yl)amino]-3-methoxy-phenyl]methyl]propane-1,3-diol] as the compound, how does the IC50 read?
Answer: 2 nM

Question: `COc1cc(OC2CN(C(=O)N(C)CCO)C2)ccc1Nc1ncc(Cl)c(-c2cnc3ccccn23)n1` [Example 68, 3-[4-[(5-chloro-4-imidazo[1,2-a]pyridin-3-yl-pyrimidin-2-yl)amino]-3-methoxy-phenoxy]-N-(2-hydroxyethyl)-N-methyl-azetidine-1-carboxamide] was tested. Which IC50 did it give?
Answer: 24 nM

Question: Which IC50 does the source give for `COc1cc(N2CC3CN(CCO)CC(C2)O3)ccc1Nc1ncc(Cl)c(-c2cnn3ccccc23)n1` [Example 150, 2-[7-[4-[(5-chloro-4-pyrazolo[1,5-a]pyridin-3-yl-pyrimidin-2-yl)amino]-3-methoxy-phenyl]-9-oxa-3,7-diazabicyclo[3.3.1]nonan-3-yl]ethanol] here?
Answer: 5 nM

Question: How did the IC50 turn out when `COc1cc(N2CCN(C(=O)[C@@H](C)O)CC2)ccc1Nc1ncc(Cl)c(-c2cnc3ccc(F)cn23)n1` [Example 255, (2R)-1-[4-[4-[[5-chloro-4-(6-fluoroimidazo[1,2-a]pyridin-3-yl)pyrimidin-2-yl]amino]-3-methoxy-phenyl]piperazin-1-yl]-2-hydroxy-propan-1-one] was run?
Answer: 5 nM

Question: With `COc1cc(OC2CN(C(=O)N(C)C)C2)ccc1Nc1ncc(Cl)c(-c2cnc3ccccn23)n1` [Example 69, 3-[4-[(5-chloro-4-imidazo[1,2-a]pyridin-3-yl-pyrimidin-2-yl)amino]-3-methoxy-phenoxy]-N,N-dimethyl-azetidine-1-carboxamide] as the compound, how does the IC50 read?
Answer: 32 nM

Question: Which IC50 does the source give for `COc1cc(N2CCN(C(=O)[C@H](C)N)CC2)ccc1Nc1ncc(Cl)c(-c2cnn3ccccc23)n1` [Example 132, (2S)-2-amino-1-[4-[4-[(5-chloro-4-pyrazolo[1,5-a]pyridin-3-yl-pyrimidin-2-yl)amino]-3-methoxy-phenyl]piperazin-1-yl]propan-1-one] here?
Answer: 3 nM

Question: With `COc1cc(C2CCNCC2)ccc1Nc1ncc(C)c(-c2cnc3c(F)cccn23)n1` [Example 197, 4-(8-fluoroimidazo[1,2-a]pyridin-3-yl)-N-[2-methoxy-4-(4-piperidyl)phenyl]-5-methyl-pyrimidin-2-amine] as the compound, how does the IC50 read?
Answer: 13 nM

Question: With `COc1cc(CN2CCC2)ccc1Nc1ncc(Cl)c(-c2cnc3ccccn23)n1` [Example 21.10, N-[4-(azetidin-1-ylmethyl)-2-methoxy-phenyl]-5-chloro-4-imidazo[1,2-a]pyridin-3-yl-pyrimidin-2-amine] as the compound, how does the IC50 read?
Answer: 18 nM

Question: `CNCC(=O)N1CCN(c2ccc(Nc3ncc(Cl)c(-c4cnc5c(F)cc(F)cn45)n3)c(OC)c2)CC1` [Example 248, 1-[4-[4-[[5-chloro-4-(6,8-difluoroimidazo[1,2-a]pyridin-3-yl)pyrimidin-2-yl]amino]-3-methoxy-phenyl]piperazin-1-yl]-2-(methylamino)ethanone] was tested. Which IC50 did it give?
Answer: 6 nM

Question: `COc1cc(N2CCN(C[C@@H](O)CO)CC2)ccc1Nc1ncc(C)c(-c2cnc3ccccn23)n1` [Example 267, (2R)-3-[4-[4-[(4-imidazo[1,2-a]pyridin-3-yl-5-methyl-pyrimidin-2-yl)amino]-3-methoxy-phenyl]piperazin-1-yl]propane-1,2-diol] was tested. Which IC50 did it give?
Answer: 27 nM

Question: `COc1cc(C2CCCCN2C(C)=O)ccc1Nc1ncc(Cl)c(-c2cnc3ccccn23)n1` (stereo not shown) [Example 3.25, 1-[2-[4-[(5-chloro-4-imidazo[1,2-a]pyridin-3-yl-pyrimidin-2-yl)amino]-3-methoxy-phenyl]-1-piperidyl]ethanone] was tested. Which IC50 did it give?
Answer: 10 nM

Question: For `COc1cc(N2CCN(CCO)CC2)ccc1Nc1ncc(C)c(-c2cnc3ccccn23)n1` [Example 101, 2-[4-[4-[(4-imidazo[1,2-a]pyridin-3-yl-5-methyl-pyrimidin-2-yl)amino]-3-methoxy-phenyl]piperazin-1-yl]ethanol], which IC50 is on record?
Answer: 235 nM

Question: How did the IC50 turn out when `COc1cc(N2CCC(O)CC2)ccc1Nc1ncc(F)c(-c2cnc3ccccn23)n1` [Example 111, 1-[4-[(5-fluoro-4-imidazo[1,2-a]pyridin-3-yl-pyrimidin-2-yl)amino]-3-methoxy-phenyl]piperidin-4-ol] was run?
Answer: 49 nM

Question: With `COc1cc(N(C)CC(=O)N2CCNCC2)ccc1Nc1ncc(Cl)c(-c2cnc3c(F)cccn23)n1` [Example 227, 2-[4-[[5-chloro-4-(8-fluoroimidazo[1,2-a]pyridin-3-yl)pyrimidin-2-yl]amino]-3-methoxy-N-methyl-anilino]-1-piperazin-1-yl-ethanone] as the compound, how does the IC50 read?
Answer: 48 nM

Question: With `COc1cc(N2CC3CN(C(=O)CN)CC(C2)O3)ccc1Nc1ncc(Cl)c(-c2cnc3c(F)cccn23)n1` [Example 209, 2-amino-1-[7-[4-[[5-chloro-4-(8-fluoroimidazo[1,2-a]pyridin-3-yl)pyrimidin-2-yl]amino]-3-methoxy-phenyl]-9-oxa-3,7-diazabicyclo[3.3.1]nonan-3-yl]ethanone] as the compound, how does the IC50 read?
Answer: 30 nM

Question: How did the IC50 turn out when `COc1cc(N2CCN(C(C)CO)CC2)ccc1Nc1ncc(C)c(-c2cnc3ccccn23)n1` (stereo not shown) [Example 274, 2-[4-[4-[(4-imidazo[1,2-a]pyridin-3-yl-5-methyl-pyrimidin-2-yl)amino]-3-methoxy-phenyl]piperazin-1-yl]propan-1-ol] was run?
Answer: 14 nM

Question: How did the IC50 turn out when `COc1cc(N2CCNCC2)ccc1Nc1ncc(OC)c(-c2cnc3ccccn23)n1` [Example 93, 4-imidazo[1,2-a]pyridin-3-yl-5-methoxy-N-(2-methoxy-4-piperazin-1-yl-phenyl)pyrimidin-2-amine] was run?
Answer: 27 nM

Question: `COc1cc(N2CCN(C(=O)[C@@H]3C[C@@H](O)CN3)CC2)ccc1Nc1ncc(Cl)c(-c2cnc3ccccn23)n1` [Example 24.9, [4-[4-[(5-chloro-4-imidazo[1,2-a]pyridin-3-yl-pyrimidin-2-yl)amino]-3-methoxy-phenyl]piperazin-1-yl]-[(2S,4R)-4-hydroxypyrrolidin-2-yl]methanone] was tested. Which IC50 did it give?
Answer: 6 nM
